Experimental data reported in paper PMC2981816, “Oxalyl retro-peptide gelators. Synthesis, gelation properties and stereochemical effects” (Beilstein Journal of Organic Chemistry, 2010).
Values belong to the molecule of their own block, whether it stands above or below them.

Experiments:
Format in all cases: physicochemical
[1] = Gelation test: gelator effectiveness (Geff) and minimal gelation concentration in solvents and solvent mixtures
[2] = as above; design: key: sol.: soluble; ins.: insoluble; cr.: crystallization; [A]: gel/sol mixture; conditions: max. volume immobilized by 10 mg gelator, Table 3
Protocol: (§1) Gelation observed for selected gelator–solvent pairs is expressed by gelator effectiveness (Geff, mL) corresponding to the maximal volume of solvent that could be immobilized by 10 mg of the gelator (Table 1). […] However, 3a and 5a also gelled small to moderate volumes of EtOH and rac-2-octanol, whilst Leu incorporating 1a formed gels with the more lipophilic solvents, decalin and tetralin. […] Apparently, the retro-peptides incorporating aliphatic and aromatic amino acids are less versatile gelators compared to retro-peptides containing […] amino acid fragments. The latter points to the importance of intermolecular lipophilic interactions for the stabilization of gel assemblies being stronger in the case of identical amino acids either lipophilic or aromatic, and weaker for mixed aromatic-lipophilic amino acid fragments present in the gelator molecule.

[3] = as above; design: key: sol.: soluble; ins.: insoluble; cr.: crystalline; [A]: gel/sol mixture; conditions: max. volume immobilized by 10 mg gelator, Table 3
Protocol: as §1

[4] = as above; design: key to Gelator effectiveness (Geff): sol.: soluble; ins.: insoluble; cr.: crystallization; [A]: gel/sol mixture; conditions: for Gelation effectiveness (Geff): Table 3
Protocol: as §1

[5] = Concentration-dependent 1H NMR of toluene-d8 gel samples (self-assembly saturation point)
Excerpt: In the first case the oxalamide NH and Leu-NH protons were downfield shifted by 1.6 and 1.8 ppm, respectively, for a gelator concentration increase from 0.001–0.1 mol dm^−3. […] The monitored protons of (S,S)-1b are more strongly downfield shifted than the corresponding protons of (S,R)-1b for the same concentration range. Similar trends of NH and C*H concentration induced shifts are observed for (S,S)-1b and its racemate (S,S)-1b/(R,R)-1b toluene-d8 gels (Figure 6). Again the magnitudes of the NH and C*H concentration induced shifts are higher for the (S,S)-1b than for the racemate gel. […]
If the racemate were organized in the conglomerate as separate enantiomeric (S,S)-1b and (R,R)-1b assemblies, the magnitudes of the concentration induced shifts should be similar to those measured the for (S,S)-1b assemblies. […]
The discontinuous concentration induced shift curves obtained for (S,R)-1b diasteroisomer may indicate the presence of different assemblies at lower and higher gelator concentrations. It appears that the first saturation point is reached at a concentration around 0.03 mol dm^-3 and the second at 0.12 mol dm^−3, the latter corresponding nicely to the experimentally determined MGC of 0.116 mol dm^−3. […]

[6] = max. volume immobilized by 10 mg gelator, CH2Cl2, Table 2
[7] = max. volume immobilized by 10 mg gelator, CH3CN, Table 2
[8] = max. volume immobilized by 10 mg gelator, H2O/DMF mixture, given as volume + volume, Table 2
[9] = max. volume immobilized by 10 mg gelator, H2O/DMSO mixture, given as volume + volume, Table 2
[10] = max. volume immobilized by 10 mg gelator, H2O, Table 2
[11] = max. volume immobilized by 10 mg gelator, THF, Table 2
[12] = max. volume immobilized by 10 mg gelator, decalin, Table 2
[13] = max. volume immobilized by 10 mg gelator, p-xylene, Table 2
[14] = max. volume immobilized by 10 mg gelator, tetralin, Table 2
[15] = max. volume immobilized by 10 mg gelator, toluene, Table 2
[16] = max. volume immobilized by 10 mg gelator, H2O/DMF mixture, given as volume + volume
[17] = max. volume immobilized by 10 mg gelator, H2O/DMSO mixture, given as volume + volume
[18] = max. volume immobilized by 10 mg gelator, tetralin

Molecule: O=C(N[C@H](C(=O)N[C@H](C(=O)O)c1ccccc1)c1ccccc1)C(=O)N[C@H](C(=O)N[C@H](C(=O)O)c1ccccc1)c1ccccc1 [3a, (S,S)-N,N'-Oxalyl-bis(phenylglycyl-phenylglycine)]
solubility in water [1]: insoluble

Molecule: NC(=O)[C@@H](NC(=O)[C@@H](NC(=O)C(=O)N[C@H](C(=O)N[C@H](C(N)=O)c1ccccc1)c1ccccc1)c1ccccc1)c1ccccc1 [3c, bis(PhgPhgNH2)]
Gelation effectiveness (Geff) ([2]; CH2Cl2): ins. | Gelation effectiveness (Geff) ([2]; CH3CN): ins. | Gelation effectiveness (Geff) ([2]; EtOH): ins. | Gelation effectiveness (Geff) ([2]; H2O): ins. | Gelation effectiveness (Geff) ([2]; THF): ins. | Gelation effectiveness (Geff) ([2]; p-xylene): ins. | Gelation effectiveness (Geff) ([2]; tetralin): ins. | Gelation effectiveness (Geff) ([2]; toluene): ins. | Gelation effectiveness (Geff) ([2]; ±2-octanol): ins. | Gelation effectiveness (Geff) ([3]; H2O/DMF mixture, given as volume + volume): cr. | Gelation effectiveness (Geff) ([3]; H2O/DMSO mixture, given as volume + volume): cr.

Molecule: COC(=O)[C@H](CC(C)C)NC(=O)[C@@H](NC(=O)C(=O)N[C@H](C(=O)N[C@@H](CC(C)C)C(=O)OC)c1ccccc1)c1ccccc1 [4b, (S,S)-N,N'-Oxalyl-bis(phenylglycyl-leucine methyl ester)]
Gelator effectiveness (Geff) [4, 6]: sol. | Gelator effectiveness (Geff) [4, 7]: cr | Gelator effectiveness (Geff) [4, 8]: cr. | Gelator effectiveness (Geff) [4, 9]: 0.2+0.5 mL | Gelator effectiveness (Geff) [4, 10]: ins. | Gelator effectiveness (Geff) [4, 11]: sol. | Gelator effectiveness (Geff) [4, 12]: 4.8 mL | Gelator effectiveness (Geff) [4, 13]: 1.1 mL | Gelator effectiveness (Geff) [4, 14]: 0.9 mL | Gelator effectiveness (Geff) [4, 15]: 1.25 mL

Molecule: CC(C)C[C@H](NC(=O)[C@H](CC(C)C)NC(=O)C(=O)N[C@@H](CC(C)C)C(=O)N[C@@H](CC(C)C)C(N)=O)C(N)=O [(S,S)-1c, bis(LeuLeuNH2)]
Gelation effectiveness (Geff) ([2]; CH3CN): ins. | Gelation effectiveness (Geff) ([2]; H2O): ins. | Gelation effectiveness (Geff) ([2]; THF): ins. | Gelation effectiveness (Geff) ([2]; p-xylene): ins. | Gelation effectiveness (Geff) ([2]; ±2-octanol): ins. | Gelation effectiveness (Geff) ([3]; EtOH): cr. | Gelation effectiveness (Geff) ([4]; max. volume immobilized by 10 mg gelator, CH2Cl2 + DMSO (footnote a), volume + volume): 1.05+0.2^a mL | Gelation effectiveness (Geff) [4, 16]: 0.45+0.75 mL | Gelation effectiveness (Geff) [4, 17]: 0.55+1.4 mL | Gelation effectiveness (Geff) [4, 18]: 7.3 mL | Gelation effectiveness (Geff) ([4]; max. volume immobilized by 10 mg gelator, toluene + DMSO (footnote a), volume + volume): 1.05+0.2^a mL

Molecule: (S,R)-N,N'-Oxalyl-bis(leucyl-leucine methyl ester) [(S,R)-1b]
second saturation point of concentration induced 1H NMR shifts ([5]; toluene-d8): 0.12 mol dm^−3 | saturation point of concentration induced 1H NMR shifts (self-assembly equilibrium) ([5]; toluene-d8, concentration range 0.001–0.1 mol dm^−3, first or only saturation point): around 0.03 mol dm^−3 | Gelator effectiveness (Geff) [4, 6]: sol. | Gelator effectiveness (Geff) [4, 7]: cr. | Gelator effectiveness (Geff) ([4]; max. volume immobilized by 10 mg gelator, EtOH, Table 2): cr. | Gelator effectiveness (Geff) [4, 8]: 11.5+11.7 mL | Gelator effectiveness (Geff) [4, 9]: 9.7+10.0 mL | Gelator effectiveness (Geff) [4, 10]: ins. | Gelator effectiveness (Geff) [4, 11]: cr. | Gelator effectiveness (Geff) [4, 12]: 0.8 mL | Gelator effectiveness (Geff) [4, 13]: 0.5 mL | Gelator effectiveness (Geff) [4, 14]: 0.2 mL | Gelator effectiveness (Geff) [4, 15]: 0.15 mL | Gelator effectiveness (Geff) ([4]; max. volume immobilized by 10 mg gelator, ±2-octanol, Table 2): cr. | minimal gelation concentration (MGC) ([4]; toluene, experimentally determined): 0.116 mol dm^−3

Molecule: bis(Leu)oxalamide [reference compound]
Gelator effectiveness (Geff) ([4]; max. volume immobilized by 10 mg gelator, CH2Cl2 + DMSO (footnote a), given as volume + volume, Table 1): 1.5+0.05^a mL | Gelator effectiveness (Geff) ([4]; max. volume immobilized by 10 mg gelator, CH3CN, Table 1): 0.95 mL | Gelator effectiveness (Geff) ([4]; max. volume immobilized by 10 mg gelator, EtOH, Table 1): 1.5 mL | Gelator effectiveness (Geff) ([4]; max. volume immobilized by 10 mg gelator, H2O/DMF mixture, given as volume + volume, Table 1): cr. | Gelator effectiveness (Geff) ([4]; max. volume immobilized by 10 mg gelator, H2O/DMSO mixture, given as volume + volume, Table 1): 0.8+0.4 mL | Gelator effectiveness (Geff) ([4]; max. volume immobilized by 10 mg gelator, THF, Table 1): 0.4 mL | Gelator effectiveness (Geff) ([4]; max. volume immobilized by 10 mg gelator, decalin, Table 1): 0.2 mL | Gelator effectiveness (Geff) ([4]; max. volume immobilized by 10 mg gelator, p-xylene, Table 1): 2.45 mL | Gelator effectiveness (Geff) ([4]; max. volume immobilized by 10 mg gelator, tetralin, Table 1): 3.0 mL | Gelator effectiveness (Geff) ([4]; max. volume immobilized by 10 mg gelator, toluene, Table 1): 1.95 mL | Gelator effectiveness (Geff) ([4]; max. volume immobilized by 10 mg gelator, ±2-octanol, Table 1): 10.95 mL | Gelator effectiveness (Geff) ([4]; maximal volume of solvent immobilized by 10 mg of gelator, solvent H2O, Table 1): 0.4 mL

Second part, the molecule after the results:

solubility in water [1]: insoluble
Molecule: O=C(N[C@@H](Cc1ccccc1)C(=O)N[C@@H](Cc1ccccc1)C(=O)O)C(=O)N[C@@H](Cc1ccccc1)C(=O)N[C@@H](Cc1ccccc1)C(=O)O [5a, (S,S)-N,N'-Oxalyl-bis(phenylalanyl-phenylalanine)]

Gelation effectiveness (Geff) ([2]; CH2Cl2): ins. | Gelation effectiveness (Geff) ([2]; CH3CN): ins. | Gelation effectiveness (Geff) ([2]; EtOH): ins. | Gelation effectiveness (Geff) ([2]; H2O): ins. | Gelation effectiveness (Geff) ([2]; THF): ins. | Gelation effectiveness (Geff) ([2]; p-xylene): ins. | Gelation effectiveness (Geff) ([2]; toluene): ins. | Gelation effectiveness (Geff) ([2]; ±2-octanol): ins. | Gelation effectiveness (Geff) [4, 16]: 2.7+3.0 mL | Gelation effectiveness (Geff) [4, 17]: 1.3+1.6 mL | Gelation effectiveness (Geff) [4, 18]: 2.0 mL
Molecule: NC(=O)[C@H](Cc1ccccc1)NC(=O)[C@H](Cc1ccccc1)NC(=O)C(=O)N[C@@H](Cc1ccccc1)C(=O)N[C@@H](Cc1ccccc1)C(N)=O [5c, bis(PhePheNH2)]
